Earlier results as cited in patent US20170202917A1, “PHARMACEUTICAL COMPOSITION FOR PREVENTING OR TREATING SKIN RASH” (DAEWOONG PHARMACEUTICAL CO., LTD., priority 2014, published 2017).

Tests used:
skin rashes = settings: prophylactic treatment

| time to development of rash after starting treatment (rash above the waist) | Compound | overall incidence of erlotinib-related skin effects (ERSEs) (NSCLC and PC clinical trials) | incidence of grade 3-4 ERSEs (NSCLC and PC clinical trials, of the patients) | improvement in skin rashes compared with placebo (skin rashes) |
| --- | --- | --- | --- | --- |
| 7 to 10 days | C#Cc1cccc(Nc2ncnc3cc(OCCOC)c(OCCOC)cc23)c1 [erlotinib] | 75% | about 10% | – |
| – | CN(C)[C@@H]1C(O)=C(C(N)=O)C(=O)[C@@]2(O)C(O)=C3C(=O)c4c(O)cccc4[C@@](C)(O)[C@H]3C[C@@H]12 [tetracycline] | – | – | 30% |
